Results reported in US4195171A, “Derivatives of an antibiotic XK-62-2 and process for the production thereof” (Abbott Laboratories, priority 1975, dated 1980).
In brackets after ≈: the same amount, converted by molar mass. Like-named read-outs stand apart in the source and are kept apart here.

Tests used:
Test in all cases: Antibacterial spectrum, MIC by agar dilution method
Assay type in all cases: cell-based
Escherichia coli KY 8321 = settings: KY8321, pH 7.2, strain produces gentamicin adenyltransferase and neomycinkanamycin phosphotransferase Type II, read-out: Minimum Inhibitory Concentration
From the text: (§1) XK-62-2, 1-N-[L-(-)-α-hydroxy-γ-aminobutyryl] XK-62-2, Compounds (I-1), (I-2), (II-1) and (II-2) against various Gram-negative and Gram-positive bacteria determined by agar dilution method at pH 7.2.
^5 produces gentamicin adenyltransferase and neomycinkanamycin
phosphotransferase Type II

[1] = system: Klebsiella pneumoniae Y-60; settings: Y60, pH 7.2, strain produces gentamicin adenyltransferase, read-out: Minimum Inhibitory Concentration
From the text: as §1
(§2) ^4 produces gentamicin adenyltransferase

[2] = system: Escherichia coli KY Z-338; settings: KYZ338, pH 7.2, strain produces gentamicin adenyltransferase, read-out: Minimum Inhibitory Concentration
From the text: as §1, §2

[3] = system: Klebsiella pneumoniae Y-58; settings: Y58, pH 7.2, strain produces gentamicin adenyltransferase, read-out: Minimum Inhibitory Concentration
From the text: as §1, §2

[4] = system: Pseudomonas aeruginosa KY 8519; settings: KY8519, agar dilution, pH 7.2, strain produces neomycinkanamycin phosphotransferase Type I and Type II, read-out: Minimum Inhibitory Concentration
From the text: as §1
(§3) ^6 produces neomycinkanamycin phosphotransferase Type I and Type II

[5] = system: Pseudomonas aeruginosa KY 8512; settings: KY8512, pH 7.2, strain produces neomycinkanamycin phosphotransferase Type I and Type II, read-out: Minimum Inhibitory Concentration
From the text: as §1, §3

[6] = system: Pseudomonas aeruginosa KY 8510
From the text: as §1
(§4) ^1 produces kanamycin acetyltransferase

[7] = system: Escherichia coli KY Z-343; settings: KYZ343, pH 7.2, strain produces kanamycin acetyltransferase, read-out: Minimum Inhibitory Concentration
From the text: as §1, §4

[8] = system: Serratia marcescens POE 1065
From the text: as §1, §4

[9] = system: Pseudomonas aeruginosa KY 8516
From the text: as §1, §4

[10] = system: Staphylococcus aureus Smith; settings: pH 7.2, read-out: Minimum Inhibitory Concentration
From the text: as §1

Proteus vulgaris 6897 = settings: pH 7.2, read-out: Minimum Inhibitory Concentration
From the text: as §1

Proteus rettgeri KY 4288 = settings: Providencia rettgeri, KY4288, pH 7.2, read-out: Minimum Inhibitory Concentration
From the text: as §1

[11] = system: Salmonella typhimurium E-9; settings: Salmonella enterica, pH 7.2, read-out: Minimum Inhibitory Concentration
From the text: as §1

[12] = system: Salmonella enteritidis G-14; settings: Salmonella enterica, pH 7.2, read-out: Minimum Inhibitory Concentration
From the text: as §1

Escherichia coli Juhl = settings: pH 7.2, read-out: Minimum Inhibitory Concentration
From the text: as §1

[13] = system: Staphylococcus aureus 209 P; settings: pH 7.2, read-out: Minimum Inhibitory Concentration
From the text: as §1

Proteus morganii KY 4298 = settings: Morganella morganii, KY4298; agar dilution, pH 7.2; read-out: Minimum Inhibitory Concentration
From the text: as §1

Serratia sp T-55 = settings: T55, agar dilution, pH 7.2, read-out: Minimum Inhibitory Concentration
From the text: as §1

Escherichia coli T-5 = system: Escherichia coli T-5
From the text: as §1

Escherichia coli T-2 = settings: T2, pH 7.2, read-out: Minimum Inhibitory Concentration
From the text: as §1

[14] = system: Klebsiella pneumoniae No. 8045; settings: pH 7.2, read-out: Minimum Inhibitory Concentration
From the text: as §1

[15] = system: Pseudomonas aeruginosa No. 12; settings: pH 7.2, read-out: Minimum Inhibitory Concentration
From the text: as §1

[16] = system: Pseudomonas aeruginosa BMH 10; settings: BMH10, pH 7.2, read-out: Minimum Inhibitory Concentration
From the text: as §1

[17] = system: Shigella sonnei ATCC 9290; settings: ATCC9290, pH 7.2, read-out: Minimum Inhibitory Concentration
From the text: as §1

Proteus mirabilis 1287 = settings: pH 7.2, read-out: Minimum Inhibitory Concentration
From the text: as §1

Escherichia coli KY 8320 = settings: KY8320, pH 7.2, strain produces neomycinkanamycin phosphotransferase Type I, read-out: Minimum Inhibitory Concentration
From the text: as §1
(§5) ^3 produces neomycinkanamycin phosphotransferase Type I

Escherichia coli KY 8349 = settings: KY8349, pH 7.2, strain produces neomycinkanamycin phosphotransferase Type I, read-out: Minimum Inhibitory Concentration
From the text: as §1, §5

[18] = system: Pseudomonas aeruginosa KY 8518; settings: KY8518, pH 7.2, strain produces neomycinkanamycin phosphotransferase Type I, read-out: Minimum Inhibitory Concentration
From the text: as §1, §5

Escherichia coli KY 8348 = settings: KY8348, pH 7.2, strain produces gentamicin acetyltransferase Type I, read-out: Minimum Inhibitory Concentration
From the text: as §1
(§6) ^2 produces gentamicin acetyltransferase Type I

[19] = system: Pseudomonas aeruginosa KY 8511; settings: KY8511, pH 7.2, strain produces gentamicin acetyltransferase Type I, read-out: Minimum Inhibitory Concentration
From the text: as §1, §6

[20] = system: Pseudomonas aeruginosa KY 8563
From the text: as §1
^7 produces gentamicin acetyltransferase Type III

SMILES: CC1(O)COC(OC2C(NC(=O)C(O)CCN)CC(N)C(OC3OC(CN)CCC3N)C2O)C(O)C1N (single isomer, unassigned) [Compound I-2, 3"-N, 6'-N-didemethyl-1-N-[L-(-)-α-hydroxy-γ-aminobutyryl] XK-62-2]
- MIC (Escherichia coli KY 8321): 0.78 µg/mL (≈ 1.45 µM)
- MIC [1]: 0.78 µg/mL (≈ 1.45 µM)
- MIC [2]: 0.4 µg/mL (≈ 0.745 µM)
- MIC [3]: 0.78 µg/mL (≈ 1.45 µM)
- MIC [4]: 3.12 µg/mL (≈ 5.81 µM)
- MIC [5]: 0.78 µg/mL (≈ 1.45 µM)
- MIC ([6]; KY8510, agar dilution, pH 7.2, strain produces kanamycin acetyltransferase, read-out: Minimum Inhibitory Concentration): 12.5 µg/mL (≈ 23.3 µM)
- MIC [7]: 0.2 µg/mL (≈ 0.373 µM)
- MIC ([8]; POE1065, agar dilution, pH 7.2, strain produces kanamycin acetyltransferase, read-out: Minimum Inhibitory Concentration): 25 µg/mL (≈ 46.6 µM)
- MIC ([9]; KY8516, agar dilution, pH 7.2, strain produces kanamycin acetyltransferase, read-out: Minimum Inhibitory Concentration): 25 µg/mL (≈ 46.6 µM)
- MIC [10]: 0.2 µg/mL (≈ 0.373 µM)
- MIC (Proteus vulgaris 6897): 3.12 µg/mL (≈ 5.81 µM)
- MIC (Proteus rettgeri KY 4288): 0.78 µg/mL (≈ 1.45 µM)
- MIC [11]: 0.4 µg/mL (≈ 0.745 µM)
- MIC ([12]; agar dilution): 12.5 µg/mL (≈ 23.3 µM)
- MIC (Escherichia coli Juhl): 1.56 µg/mL (≈ 2.91 µM)
- MIC [13]: 0.2 µg/mL (≈ 0.373 µM)
- MIC (Proteus morganii KY 4298): 0.78 µg/mL (≈ 1.45 µM)
- MIC (Serratia sp T-55): 3.12 µg/mL (≈ 5.81 µM)
- MIC (Escherichia coli T-5; T5, pH 7.2, read-out: Minimum Inhibitory Concentration): 1.56 µg/mL (≈ 2.91 µM)
- MIC (Escherichia coli T-2): 0.78 µg/mL (≈ 1.45 µM)
- MIC [14]: 0.78 µg/mL (≈ 1.45 µM)
- MIC [15]: 0.4 µg/mL (≈ 0.745 µM)
- MIC [16]: 0.4 µg/mL (≈ 0.745 µM)
- MIC [17]: 1.56 µg/mL (≈ 2.91 µM)
- MIC (Proteus mirabilis 1287): 12.5 µg/mL (≈ 23.3 µM)
- MIC (Escherichia coli KY 8320): 0.78 µg/mL (≈ 1.45 µM)
- MIC (Escherichia coli KY 8349): 0.4 µg/mL (≈ 0.745 µM)
- MIC [18]: 0.78 µg/mL (≈ 1.45 µM)
- MIC (Escherichia coli KY 8348): 0.4 µg/mL (≈ 0.745 µM)
- MIC [19]: 0.78 µg/mL (≈ 1.45 µM)
- MIC ([20]; KY8563, agar dilution, pH 7.2, strain produces gentamicin acetyltransferase Type III, read-out: Minimum Inhibitory Concentration): 3.12 µg/mL (≈ 5.81 µM)

SMILES: CNCC1CCC(N)C(OC2C(N)CC(NC(=O)C(O)CCN)C(OC3OCC(C)(O)C(N)C3O)C2O)O1 (single isomer, unassigned) [II-2, 3"-N-demethyl-1-N-[L-(-)-α-hydroxy-γ-aminobutyryl] XK-62-2]
- MIC (Escherichia coli KY 8321): 0.78 µg/mL (≈ 1.42 µM)
- MIC [1]: 0.78 µg/mL (≈ 1.42 µM)
- MIC [2]: 0.4 µg/mL (≈ 0.726 µM)
- MIC [3]: 0.4 µg/mL (≈ 0.726 µM)
- MIC [4]: 6.25 µg/mL (≈ 11.4 µM)
- MIC [5]: 1.56 µg/mL (≈ 2.83 µM)
- MIC ([6]; KY8510, pH 7.2, read-out: Minimum Inhibitory Concentration): 3.12 µg/mL (≈ 5.67 µM)
- MIC [7]: 0.2 µg/mL (≈ 0.363 µM)
- MIC ([8]; POE1065, pH 7.2, read-out: Minimum Inhibitory Concentration): 3.12 µg/mL (≈ 5.67 µM)
- MIC ([9]; KY8516, pH 7.2, read-out: Minimum Inhibitory Concentration): 3.12 µg/mL (≈ 5.67 µM)
- MIC [10]: 0.4 µg/mL (≈ 0.726 µM)
- MIC (Proteus vulgaris 6897): 6.25 µg/mL (≈ 11.4 µM)
- MIC (Proteus rettgeri KY 4288): 0.78 µg/mL (≈ 1.42 µM)
- MIC [11]: 0.78 µg/mL (≈ 1.42 µM)
- MIC [12]: 3.12 µg/mL (≈ 5.67 µM)
- MIC (Escherichia coli Juhl; agar dilution): 1.56 µg/mL (≈ 2.83 µM)
- MIC [13]: 0.4 µg/mL (≈ 0.726 µM)
- MIC (Proteus morganii KY 4298): 1.56 µg/mL (≈ 2.83 µM)
- MIC (Serratia sp T-55): 1.56 µg/mL (≈ 2.83 µM)
- MIC (Escherichia coli T-5; T5, agar dilution, pH 7.2, read-out: Minimum Inhibitory Concentration): 0.4 µg/mL (≈ 0.726 µM)
- MIC (Escherichia coli T-2): 0.78 µg/mL (≈ 1.42 µM)
- MIC [14]: 0.78 µg/mL (≈ 1.42 µM)
- MIC [15]: 0.78 µg/mL (≈ 1.42 µM)
- MIC [16]: 0.4 µg/mL (≈ 0.726 µM)
- MIC [17]: 3.12 µg/mL (≈ 5.67 µM)
- MIC (Proteus mirabilis 1287): 12.5 µg/mL (≈ 22.7 µM)
- MIC (Escherichia coli KY 8320): 0.78 µg/mL (≈ 1.42 µM)
- MIC (Escherichia coli KY 8349): 0.4 µg/mL (≈ 0.726 µM)
- MIC [18]: 1.56 µg/mL (≈ 2.83 µM)
- MIC (Escherichia coli KY 8348): 0.4 µg/mL (≈ 0.726 µM)
- MIC [19]: 1.56 µg/mL (≈ 2.83 µM)
- MIC ([20]; KY8563, pH 7.2, read-out: Minimum Inhibitory Concentration): 3.12 µg/mL (≈ 5.67 µM)
